Reference: patent US8058243B2, “Method for treating a brain cancer with ifenprodil” (HSC Research and Development Limited Partnership, priority 2006, dated 2011)
Structures can show the parent of a compound that is named as a salt. Where two headings read alike, the source gives them in different places.

Test system: murine neural precursor cells (neurosphere cultures)
Experiment: HTS of LOPAC library against secondary neurosphere cultures, MTT proliferation assay at 3 μM, day 7 (z score, P value)
Assay type: cell-based, mouse
[1] = LOPAC library screen, 3 μM, MTT, neurosphere cultures
[2] = LOPAC screen, neurosphere MTT proliferation, 3 μM, day 7
[3] = yes/no: significantly inhibited neurosphere proliferation (P<0.01) in primary screen
[4] = LOPAC primary screen, neurosphere MTT proliferation, 3 μM, day 7
[5] = LOPAC library screen at 3 μM, secondary neurosphere cultures, MTT
[6] = yes = significantly inhibited neurosphere proliferation (P<0.01) in the primary screen
[7] = LOPAC library screen at 3 μM, MTT, secondary neurosphere cultures, screened in singlets
[8] = yes/no: significantly inhibited neurosphere proliferation in primary screen
[9] = yes/no: significantly inhibited neurosphere proliferation (P<0.01) in the primary screen
[10] = primary LOPAC screen, 3 μM, MTT, neurosphere proliferation
[11] = yes/no: significantly inhibited neurosphere proliferation in the primary screen
[12] = LOPAC library screen, 3 μM, MTT, secondary neurosphere cultures, day 7

For L-Hyoscyamine, the Activity was “no”, the “Z Score” value was −0.661 and the Z score was −0.661.

With `O=C1N=c2cc(Cl)c(Cl)cc2=NC1=O` [6,7-Dichloroquinoxaline-2,3-dione] the “Z Score” value [1] was 0.1274, the Z score [2] was 0.127 and the Activity [3] was “no”.

`C[N+](C)(C)CCO.[Br-]` [Choline bromide] was tested, and the Activity was “no”, the “Z Score” value was −0.73 and the Z score was −0.730.

In the case of `Cl.N[C@@H](CCC(=O)O)C(=O)O` [L-Glutamic acid hydrochloride], the “Z Score” value is reported as −0.4727, the Z score [4] is reported as −0.473 and the Activity [3] is reported as “no”.

In the case of `O=C1N(c2ccccc2)c2ccccc2C1(Cc1ccncc1)Cc1ccncc1` [Linopirdine], the “Z Score” value [5] is reported as −0.5525, the Z score [4] is reported as −0.553 and the Activity [6] is reported as “no”.

With `N.N.[Cl][Pt][Cl]` [Cisplatin] the “Z Score” value [7] was 1.523, the Z score [4] was 1.523 and the Activity [8] was “no”.

`CC(C)N(CCC(C(N)=O)(c1ccccc1)c1ccccn1)C(C)C` (stereo not drawn) [Disopyramide phosphate] was tested, and the “Z Score” value [1] was −0.07187, the Z score [4] was −0.072 and the Activity [9] was “no”.

In the case of `O=C1NC(=O)C(c2ccccc2[N+](=O)[O-])=C1Nc1ccc(O)c(Cl)c1` [SB 415286], the “Z Score” value is reported as −2.87 and the Z score [4] is reported as −2.870.

For `N#C/C(=C\c1ccc(O)c(O)c1)C(N)=S` [Tyrphostin 47], the “Z Score” value was 0.1775, the Z score [10] was 0.178 and the Activity [11] was “no”.

`CC(C)NC[C@@H](O)COc1ccc(CC(N)=O)cc1` [R(+)-Atenolol] was tested, and the “Z Score” value [7] was 3.764, the Z score [10] was 3.764 and the Activity [11] was “no”.

`CCCn1c(=O)c2[nH]c(-c3ccc(OCC(=O)NCCN)cc3)nc2n(CCC)c1=O` [Xanthine amine congener] was tested, and the “Z Score” value [1] was 0.001164, the Z score [10] was 0.001 and the Activity [11] was “no”.

In the case of `CC(=O)c1c(O)c(C)c(O)c(Cc2c(O)c3c(c(C(=O)/C=C/c4ccccc4)c2O)OC(C)(C)C=C3)c1O` [Rottlerin], the “Z Score” value is reported as 0.3042, the Z score [4] is reported as 0.304 and the Activity [8] is reported as “no”.

In the case of (+)-Catechin Hydrate, the “Z Score” value [1] is reported as 0.5105, the Z score [10] is reported as 0.511 and the Activity [11] is reported as “no”.

For `NC(Cc1cc(O)c(O)cc1O)C(=O)O` (racemic) [6-Hydroxy-DL-DOPA], the “Z Score” value was 1.204, the Z score [4] was 1.204 and the Activity [3] was “no”.

In the case of `COC(=O)C1=C(C)NC(C)=C([N+](=O)[O-])C1c1ccccc1C(F)(F)F` (stereo not drawn) [(B1)-Bay K 8644], the “Z Score” value is reported as 0.8527.

For `CC[C@@H]1C(=O)OC[C@@H]1Cc1cncn1C` [Pilocarpine nitrate], the “Z Score” value (168 h, 3 µM) was −1.213, the Z score (168 h, 3 µM) was −1.213 and the Activity [6] was “no”.

With `C[C@@H](NC(=O)/C(C#N)=C/c1ccc(O)c(O)c1)c1ccccc1` [Tyrphostin AG 527] the “Z Score” value [12] was −1.607, the Z score [10] was −1.607 and the Activity [11] was “no”.

With `CC(C)Oc1cccnc1N(C)C1CCN(Cc2ccccc2)CC1.O=C(O)/C=C\C(=O)O` [U-101958 maleate] the “Z Score” value was −2.065, the Z score [10] was −2.065 and the Activity [11] was “no”.

`O=C(O)C1=CC(=C(c2ccc(O)c(C(=O)O)c2)c2ccc(O)c(C(=O)O)c2)C=CC1=O` [Aurintricarboxylic acid] was tested, and the “Z Score” value (168 h, 3 µM) was 0.5709 and the Z score (168 h, 3 µM) was 0.571.

`CC(COc1ccccc1)N(CCCl)Cc1ccccc1` (stereo not drawn) [Phenoxybenzamine hydrochloride] was tested, and the “Z Score” value was −1.512, the Z score [2] was −1.512 and the Activity [3] was “no”.

In the case of `N=C1Sc2ccccc2C2=NCCCN12` [PD 404,182], the “Z Score” value is reported as 0.09055, the Z score [4] is reported as 0.091 and the Activity [8] is reported as “no”.

With `CC(=O)O[C@H]1C[C@@]2(C)[C@@H](C[C@@H](O)[C@H]3[C@@]4(C)CC[C@@H](O)[C@@H](C)[C@@H]4CC[C@@]32C)/C1=C(\CCC=C(C)C)C(=O)O` [Fusidic acid sodium] the “Z Score” value [7] was 2.045, the Z score [4] was 2.045 and the Activity [3] was “no”.

With `O=C(O)[C@@H]1CCN1` [L-azetidine-2-carboxylic acid] the “Z Score” value was 0.9837, the Z score [4] was 0.984 and the Activity [8] was “no”.

In the case of `C[C@@H]1O[C@@H]1P(=O)([O-])[O-].[Na+].[Na+]` [Phosphomycin disodium], the “Z Score” value [12] is reported as −1.402, the Z score [4] is reported as −1.402 and the Activity [6] is reported as “no”.

`CC[C@H]1CN2CCc3cc(OC)c(OC)cc3[C@@H]2C[C@@H]1C[C@H]1NCCc2cc(OC)c(OC)cc21` [Emetine dihydrochloride hydrate] was tested, and the Activity was “yes”, the “Z Score” value [12] was −10.63 and the Z score [4] was −10.633.

With `CC1(C)CCC2=C(O1)c1ccccc1C(=O)C2=O` [beta-Lapachone] the “Z Score” value (168 h, 3 µM) was −10.43, the Z score (168 h, 3 µM) was −10.428 and the Activity [6] was “yes”.

`CN1CC[C@]2(CCN3CCc4c(oc5ccccc45)[C@@H]3C2)N(C)C1=O.Cl` [MK-912] was tested, and the “Z Score” value was −0.582, the Z score [4] was −0.582 and the Activity [6] was “no”.

For MDL 26,630 trihydrochloride, the “Z Score” value was 0.3274, the Z score [4] was 0.327 and the Activity [6] was “no”.

In the case of `CC(=O)NCCc1c[nH]c2ccc(O)cc12` [N-Acetyl-5-hydroxytryptamine], the “Z Score” value [5] is reported as −1.06, the Z score [10] is reported as −1.060 and the Activity [11] is reported as “no”.

In the case of (−)Amethopterin, the “Z Score” value [12] is reported as −8.704, the Z score [4] is reported as −8.704 and the Activity [9] is reported as “yes”.

For “Phenylbenzene-omega-phosphono-alpha-amino acid”, the “Z Score” value was −0.01423, the Z score [4] was −0.014 and the Activity [8] was “no”.

In the case of `COC(=O)c1cc2c(cn1)[nH]c1ccccc12` [Methyl beta-carboline-3-carboxylate], the “Z Score” value is reported as 0.06023, the Z score [4] is reported as 0.060 and the Activity [3] is reported as “no”.

`N#Cc1cc2nc([O-])c([O-])nc2cc1[N+](=O)[O-].[Na+].[Na+]` [CNQX disodium] was tested, and the “Z Score” value [12] was −1.904, the Z score [2] was −1.904 and the Activity [3] was “no”.

In the case of `CC(C)(C)c1cc(/C=C(\C#N)C(N)=S)cc(C(C)(C)C)c1O` [Tyrphostin AG 879], the “Z Score” value [12] is reported as −1.607, the Z score [10] is reported as −1.607 and the Activity [11] is reported as “no”.

With `N=C(N)c1ccc(OCCCCCOc2ccc(C(=N)N)cc2)cc1` [Pentamidine (32), Pentamidine, reference compound] the Activity was “yes”, the “Z Score” value [12] was −11.27 and the Z score [4] was −11.274.

With `C1CNCCN1.COc1cc(C(O)CO)ccc1O.COc1cc(C(O)CO)ccc1O` (racemic) [MHPG piperazine] the “Z Score” value [1] was 0.05276, the Z score [4] was 0.053 and the Activity [3] was “no”.

With `CCCCOC(=O)NS(=O)(=O)c1sc(CC(C)C)cc1-c1ccc(Cn2c(CC)nc3c(C)cc(C)nc32)cc1` [L-162,313] the “Z Score” value was 0.7923, the Z score [4] was 0.792 and the Activity [3] was “no”.

For `CC(N)c1cccc(Cl)c1Cl.Cl` (racemic) [(±)-2,3-Dichloro-alpha-methylbenzylamine hydrochloride], the Z score [2] was −2.251 and the Activity [3] was “no”.

With `CC1=C(/C=C/C(C)=C/C=C/C(C)=C\C(=O)O)C(C)(C)CCC1` [13-cis-retinoic acid] the “Z Score” value [12] was −1.469, the Z score [4] was −1.469 and the Activity [9] was “no”.

For `CC(C)COC(=O)OCN1C(=O)CN(CCN2CC(=O)N(COC(=O)OCC(C)C)C(=O)C2)CC1=O` [Sobuzoxane], the “Z Score” value [12] was −9.6, the Z score [4] was −9.600 and the Activity [6] was “yes”.

With `CSc1ccc2c(c1)N(CCC1CCCCN1C)c1ccccc1S2` (stereo not drawn) [Thioridazine hydrochloride] the “Z Score” value (168 h, 3 µM) was 0.2356, the Z score (168 h, 3 µM) was 0.236 and the Activity [9] was “no”.

For `Cl.OC1CCCCC1N1CCC(c2ccccc2)CC1` (racemic) [(±)-Vesamicol hydrochloride], the Z score [10] was −1.967 and the Activity [11] was “no”.

For `O=S(=O)(c1cccc2c(I)cccc12)N1CCCNCC1` [ML-7], the “Z Score” value was −11.27, the Z score [4] was −11.274 and the Activity [9] was “yes”.

For `NNCCc1ccccc1` [Phenelzine sulfate], the “Z Score” value [12] was −1.536, the Z score [4] was −1.536 and the Activity [8] was “no”.

`C=CCN1CC[C@]23c4c5ccc(O)c4O[C@H]2/C(=N/N=C2\CC[C@@]4(O)[C@H]6Cc7ccc(O)c8c7[C@@]4(CCN6CC=C)[C@H]2O8)CC[C@@]3(O)[C@H]1C5` [Naloxonazine dihydrochloride] was tested, and the “Z Score” value was −0.6061, the Z score [4] was −0.606 and the Activity [9] was “no”.

`CS(=O)(=O)O.Cc1c(C(=O)c2cccc3ccccc23)c2cccc3c2n1[C@H](CN1CCOCC1)CO3` [(R)-(+)-WIN 55,212-2 mesylate] was tested, and the “Z Score” value was −0.6807, the Z score [10] was −0.681 and the Activity [11] was “no”.

`CCCCCCCCCCCCCCCCCCNC(=O)OCC(COP(=O)([O-])OCC[n+]1ccsc1)OC` (stereo not drawn) [CV-3988] was tested, and the “Z Score” value was −0.4371, the Z score [4] was −0.437 and the Activity [8] was “no”.

In the case of `Cl.O=C(O)C1=CCCN(CCON=C(c2ccccc2)c2ccccc2)C1` [NO-711 hydrochloride], the “Z Score” value is reported as −0.4618, the Z score [4] is reported as −0.462 and the Activity [6] is reported as “no”.

In the case of `CC(=O)Nc1nnc(S(N)(=O)=O)s1` [Acetazolamide], the “Z Score” value [1] is reported as 1.111, the Z score [4] is reported as 1.111 and the Activity [6] is reported as “no”.

For `CCCN(CCC)[C@H]1CCc2c(F)ccc(O)c2C1.Cl` [S(−)-UH-301 hydrochloride], the “Z Score” value was −2.706, the Z score [4] was −2.706 and the Activity [9] was “yes”.

With `CC(C)CN(C)c1nc(N)c(C(=O)N=C(N)N)nc1Cl` [5-(N-Methyl-N-isobutyl)amiloride] the “Z Score” value [7] was 1.871, the Z score [10] was 1.871 and the Activity [11] was “no”.

`COc1cc(/C=C(\C#N)C(=O)c2ccc(O)c(O)c2)cc(I)c1O` [I-OMe-Tyrphostin AG 538] was tested, and the “Z Score” value [5] was −0.7369, the Z score [10] was −0.737 and the Activity [11] was “no”.

`CCc1cccc2c3c([nH]c12)C(CC)(CC(=O)O)OCC3` (stereo not drawn) [Etodolac] was tested, and the “Z Score” value [5] was −0.5582, the Z score [2] was −0.558 and the Activity [3] was “no”.
